≈ marks a conversion by molar mass, not a printed value. Some results are limits rather than exact numbers.

The subject of one experiment is Candida albicans A9540. Briefly: In vitro antifungal activity (MIC), agar dilution on yeast morphology agar. It is filed as cell-based. The conditions noted are these: YMA, 0.06M phosphate (pH 7.0), 28°C, 40 hours, read-out: MIC Ca-4. The protocol:
(§1) The in vitro antifungal activity (MIC) of the compounds of the invention was determined on yeast morphology agar (YMA, Difco Laboratories, USA), buffered with 0.06M phosphate (pH 7.0). Nine parts of molten agar were combined with one part of antibiotic dilution in petri dishes. A 5-µl suspension containing 2x10⁶ cells/ml was spotted on the surface of the agar plates. The plates were incubated at 28°C and MICs were recorded after 40 hours of the incubation. All of the 11-hydroxy derivatives of Formula I-I are active against a wide range of fungi.
A general note: Agar dilution tests growth on a series of plates holding different concentrations.

In experiment [1] the test system is Candida tropicalis IFO10241. The description is as above. It counts as cell-based. The conditions noted are these: YMA, 0.06M phosphate (pH 7.0), 28°C, 40 hours, read-out: MIC Ct-12. The protocol: as §1
Experiment [2] has as its system Cryptococcus neoformans IAM4514. The experiment is described as above. It counts as cell-based. The conditions noted are these: YMA, 0.06M phosphate (pH 7.0), 28°C, 40 hours, read-out: MIC Cn-2. The protocol:
as §1

The next experiment relates to Strain AA 3798. Put plainly: Antibiotic susceptibility of the producing strain, antibiotic disks. It is filed as cell-based, unidentified actinomycete. The conditions noted are these: yeast-glucose-malt agar, 37°C, 4 days. The protocol:
Antibiotic susceptibility of strain AA 3798 was examined using antibiotic disks (Tridisk, Eiken Chemical Co., Ltd). The disks were placed onto the surface of yeast-glucose-malt agar (yeast extract 0.1%, glucose 1%, malt extract 0.1%, CaCl₂·2H₂O 0.05%, and agar 1.5%) which had been seeded by strain AA 3798 (4% inoculum), and the plates were then incubated at 37°C for 4 days.

For `CCOc1cc(O)c2c(c1)C(=O)c1c(cc3c(c1O)-c1c(cc(C)c(C(=O)NCC(=O)O)c1O)[C@H](O[C@@H]1O[C@H](C)[C@H](O)[C@H](O[C@@H]4OC[C@@H](O)[C@H](O)[C@H]4O)[C@H]1O)[C@H]3O)C2=O` [IIA, 11-O-Dexylosyl-11-O-ethylpradimicin T1], the MIC in the experiment on Candida albicans A9540 amounted to 3.1 µg/mL (≈ 3.75 µM); in experiment [1] it was 12.5 µg/mL (≈ 15.1 µM); in experiment [2], 1.6 µg/mL (≈ 1.93 µM).

Consider `CNC1C(C)OC(OC2c3cc(C)c(C(=O)NC(CO)C(=O)O)c(O)c3-c3c(cc4c(c3O)C(=O)c3cc(O)cc(O)c3C4=O)C2O)C(O)C1OC1OCC(O)C(O)C1O` (stereo not drawn) [ID, 11-O-Demethylpradimicin FA-1], for which the MIC in the experiment with Candida albicans A9540 was 6.3 µg/mL (≈ 7.48 µM); in experiment [1] it was 12.5 µg/mL (≈ 14.8 µM); in experiment [2] it was 3.1 µg/mL (≈ 3.68 µM). Take `Cc1cc2c(c(O)c1C(=O)NCC(=O)O)-c1c(cc3c(c1O)C(=O)c1cc(C#N)cc(O)c1C3=O)[C@H](O)[C@H]2O[C@@H]1O[C@H](C)[C@H](O)[C@H](O[C@@H]2OC[C@@H](O)[C@H](O)[C@H]2O)[C@H]1O` [IIL, 11-Cyano-11-dexylosyloxy pradimicin T1]: the results for the MIC (in the experiment with Candida albicans A9540; in experiment [1]; in experiment [2]) were 12.5 µg/mL (≈ 15.5 µM), 25 µg/mL (≈ 30.9 µM) and 6.3 µg/mL (≈ 7.79 µM), respectively. Taken in the same sequence, the figures for `Cc1cc2c(c(O)c1C(=O)NCC(=O)O)-c1c(cc3c(c1O)C(=O)c1cccc(O)c1C3=O)[C@H](O)[C@H]2O[C@@H]1O[C@H](C)[C@H](O)[C@H](O[C@@H]2OC[C@@H](O)[C@H](O)[C@H]2O)[C@H]1O` [III, 11-Dexylosyloxypradimicin T1] were 6.3 µg/mL (≈ 8.04 µM), 12.5 µg/mL (≈ 16 µM) and 6.3 µg/mL (≈ 8.04 µM). The matching figures for `CNC1C(C)OC(OC2c3cc(C)c(C(=O)NC(C)C(=O)O)c(O)c3-c3c(cc4c(c3O)C(=O)c3cccc(O)c3C4=O)C2O)C(O)C1OC1OCC(O)C(O)C1O` (stereo not drawn) [IIG, 11-Demethoxypradimicin A]: 6.3 µg/mL (≈ 7.77 µM), 12.5 µg/mL (≈ 15.4 µM) and 1.6 µg/mL (≈ 1.97 µM).

As to `Cc1cc2c(c(O)c1C(=O)NCC(=O)O)-c1c(cc3c(c1O)C(=O)c1cc(N(C)C)cc(O)c1C3=O)[C@H](O)[C@H]2O[C@@H]1O[C@H](C)[C@H](O)[C@H](O[C@@H]2OC[C@@H](O)[C@H](O)[C@H]2O)[C@H]1O` [IIJ, 11-Dexylosyloxy-11-dimethylaminopradimicin T1], the MIC in the experiment with Candida albicans A9540 is 12.5 µg/mL (≈ 15.1 µM); in experiment [1] it was above 100 µg/mL; in experiment [2] it was 50 µg/mL (≈ 60.5 µM).

Take `Cc1cc2c(c(O)c1C(=O)NC(CO)C(=O)O)-c1c(cc3c(c1O)C(=O)c1cc(O)cc(O)c1C3=O)C(O)C2OC1OC(C)C(N(C)C)C(OC2OCC(O)C(O)C2O)C1O` (stereo not drawn) [IE, 11-O-Demethyl-BMS-181182]: the MIC in the experiment on Candida albicans A9540 came out at 6.3 µg/mL (≈ 7.35 µM); in experiment [1] it was 25 µg/mL (≈ 29.2 µM); in experiment [2], 6.3 µg/mL (≈ 7.35 µM). For the compound `Cc1cc2c(c(O)c1C(=O)NCC(=O)O)-c1c(cc3c(c1O)C(=O)c1cc(OCCF)cc(O)c1C3=O)[C@H](O)[C@H]2O[C@@H]1O[C@H](C)[C@H](O)[C@H](O[C@@H]2OC[C@@H](O)[C@H](O)[C@H]2O)[C@H]1O` [IIB, 11-O-Dexylosyl-11-O-(2-fluoroethyl)pradimicin T1], the MIC in the experiment with Candida albicans A9540 worked out at 3.1 µg/mL (≈ 3.67 µM); in experiment [1] it was 6.3 µg/mL (≈ 7.45 µM); in experiment [2], 1.6 µg/mL (≈ 1.89 µM). Turning to `CC1(C)S[C@@H]2[C@H](NC(=O)[C@H](C(=O)O)c3ccsc3)C(=O)N2[C@H]1C(=O)O` [ticarcillin], in the experiment on Strain AA 3798 (disk 2 µg), the “Antibiotic susceptibility of strain AA 3798” value (shortened to “Antibiotic susceptibility”) is reported as “susceptible”. As for `CC[C@H]1OC(=O)[C@H](C)[C@@H](O[C@H]2C[C@@](C)(OC)[C@@H](O)[C@H](C)O2)[C@H](C)[C@@H](O[C@@H]2O[C@H](C)C[C@H](N(C)C)[C@H]2O)[C@](C)(O)C[C@@H](C)C(=O)[C@H](C)[C@@H](O)[C@]1(C)O` [erythromycin], the “Antibiotic susceptibility” value in the experiment on Strain AA 3798 (disk 10 µg) is “resistance”. As for gentamicin, the “Antibiotic susceptibility” value in the experiment on Strain AA 3798 (disk 5 µg) is recorded as “resistance”. As for `C[C@@H]1O[C@@H]1P(=O)(O)O` [fosfomycin], the “Antibiotic susceptibility” value in the experiment on Strain AA 3798 (disk 50 µg) is reported as “resistance”. With `C=CCOc1cc(O)c2c(c1)C(=O)c1c(cc3c(c1O)-c1c(cc(C)c(C(=O)NCC(=O)O)c1O)[C@H](O[C@@H]1O[C@H](C)[C@H](O)[C@H](O[C@@H]4OC[C@@H](O)[C@H](O)[C@H]4O)[C@H]1O)[C@H]3O)C2=O` [IIC, 11-O-Allyl-11-O-dexylosylpradimicin T1], the MIC with Candida albicans A9540 is 6.3 µg/mL (≈ 7.5 µM); in experiment [1], 12.5 µg/mL (≈ 14.9 µM); in experiment [2], 3.1 µg/mL (≈ 3.69 µM). In the case of `CC1=C(C(=O)O)N2C(=O)[C@@H](NC(=O)[C@H](N)c3ccccc3)[C@H]2SC1` [cephalexin], the “Antibiotic susceptibility” value with Strain AA 3798 (disk 10 µg) is listed as “resistance”.

Turning to `NC[C@H]1O[C@H](O[C@H]2[C@H](O)[C@@H](O[C@H]3O[C@H](CO)[C@@H](O)[C@H](N)[C@H]3O)[C@H](N)C[C@@H]2N)[C@H](N)C[C@@H]1O` [tobramycin], the “Antibiotic susceptibility” value in the experiment on Strain AA 3798 (disk 10 µg) was “resistance”. `Cc1cc2c(c(O)c1C(=O)NC(C)C(=O)O)-c1c(cc3c(c1O)C(=O)c1cc(O)cc(O)c1C3=O)C(O)C2OC1OC(C)C(N)C(OC2OCC(O)C(O)C2O)C1O` (stereo not drawn) [IC, 11-O-Demethylpradimicin C]: the figures for the MIC (with Candida albicans A9540; in experiment [1]; in experiment [2]) were 6.3 µg/mL (≈ 7.75 µM), 12.5 µg/mL (≈ 15.4 µM) and 1.6 µg/mL (≈ 1.97 µM), respectively. On to polymyxin B, for which the “Antibiotic susceptibility” value in the experiment on Strain AA 3798 (disk 300 U) is “resistance”. In the case of `CN[C@@H]1[C@H](O[C@@H]2OC[C@@H](O)[C@H](O)[C@H]2O)[C@@H](O)[C@H](O[C@H]2c3cc(C)c(C(=O)N[C@H](C)C(=O)O)c(O)c3-c3c(cc4c(c3O)C(=O)c3cc(OC)cc(O)c3C4=O)[C@@H]2O)O[C@@H]1C` [Pradimicin A, reference compound], the MIC in the experiment with Candida albicans A9540 amounted to 6.3 µg/mL (≈ 7.49 µM); in experiment [1], 12.5 µg/mL (≈ 14.9 µM); in experiment [2] it was 1.6 µg/mL (≈ 1.9 µM).

For `O=C(O)[C@H]1/C(=C/CO)O[C@@H]2CC(=O)N21` [clavulanic acid], the “Antibiotic susceptibility” value with Strain AA 3798 (disk 1 µg) is given as “susceptible”. As for `Cc1cc2c(c(O)c1C(=O)NCC(=O)O)-c1c(cc3c(c1O)C(=O)c1cc(C(N)=O)cc(O)c1C3=O)[C@H](O)[C@H]2O[C@@H]1O[C@H](C)[C@H](O)[C@H](O[C@@H]2OC[C@@H](O)[C@H](O)[C@H]2O)[C@H]1O` [IIK, 11-Carbamoyl-11-dexylosyloxy pradimicin T1], the MIC was found to be 12.5 µg/mL (≈ 15.1 µM) in the experiment with Candida albicans A9540, 25 µg/mL (≈ 30.2 µM) in experiment [1] and 6.3 µg/mL (≈ 7.62 µM) in experiment [2]. As for colistin, the “Antibiotic susceptibility” value with Strain AA 3798 (disk 50 U) was “susceptible”. On to `CCn1cc(C(=O)O)c(=O)c2cc(F)c(N3CCNCC3)cc21` [norfloxacin], for which the “Antibiotic susceptibility” value with Strain AA 3798 (disk 2 µg) is “susceptible”.

On to `CO[C@@H]1[C@@H](O[C@@H]2O[C@H](C)[C@@H](O[C@H]3C[C@@](C)(O)[C@@H](OC(=O)CC(C)C)[C@H](C)O3)[C@H](N(C)C)[C@H]2O)[C@@H](CC=O)C[C@@H](C)[C@@H](O)/C=C/C=C/C[C@@H](C)OC(=O)C[C@H]1OC(C)=O` [josamycin], for which the “Antibiotic susceptibility” value with Strain AA 3798 (disk 15 µg) is “resistance”. With `CC1(C)S[C@@H]2[C@H](NC(=O)[C@H](N)c3ccccc3)C(=O)N2[C@H]1C(=O)O` [ampicillin], the “Antibiotic susceptibility” value in the experiment with Strain AA 3798 (disk 20 µg) is “resistance”. Take `CCC[C@@H]1C[C@@H](C(=O)N[C@@H]([C@H]2O[C@H](SC)[C@H](O)[C@@H](O)[C@H]2O)[C@@H](C)O)N(C)C1` [lincomycin]: the “Antibiotic susceptibility” value in the experiment with Strain AA 3798 (disk 15 µg) was “resistance”.

As for `O=C(N[C@H](CO)[C@H](O)c1ccc([N+](=O)[O-])cc1)C(Cl)Cl` [chloramphenicol], the “Antibiotic susceptibility” value in the experiment on Strain AA 3798 (disk 10 µg) is given as “susceptible”. In the case of `CCn1cc(C(=O)O)c(=O)c2ccc(C)nc21` [nalidixic acid], in the experiment on Strain AA 3798 (disk 15 µg), the “Antibiotic susceptibility” value was “resistance”.

Values taken from patent EP0600782A1, “C-11 modified pradimicin derivatives” (priority 1992, dated 1994).
